In patent USRE38424E1 (The United States of America as represented by the …, priority 1994, dated 2004):
Where “and” joins values, the source holds several entries; their conditions need not be identical. Equal entries are not always repeated. Where two headings read alike, the source gives them in different places.

How the values were obtained:
[1] = test system: epithelial ovarian cancer; assay: Phase I taxol dose escalation with G-CSF support: disease response; type: in vivo, human
Experimental: Patients with histologically proven epithelial ovarian cancer with bidimensionally measurable disease were candidates for the study.
All patients received subsequent cycles of therapy on the general medical oncology in-patient ward.
A G-CSF dose of 10 μg/kg/day was used. […] This was determined by checking WBC and platelet counts on a twice weekly basis.
Patients who had normalization of serum CA-125 levels and complete resolution of all assessable disease confirmed at peritoneoscopy Were assessed as having a clinical complete response to therapy (CCR). A partial response (PR) was designated for individuals experiencing a greater than 50% reduction in the sum of the products of the greatest perpendicular diameters of all measurable lesions that lasted at least one month. A minor response (MR) was defined as a greater than 25% but less than 50% reduction in the sum of the products of the greatest perpendicular diameters of all measurable lesions lasting at least one month. Patients with a less than 25% reduction in tumor volume after two cycles of therapy were considered to be nonresponders and were taken off therapy. Patients who experienced greater than 25% reduction in tumor volume and/or a more than 50% reduction in CA-125 level received two cycles beyond maximal response. Patients with CCR received two cycles beyond peritoneoscopy.

ovarian cancer = settings: cited from earlier work; for Response rate: taxol without G-CSF
[2] = Totals, all dose levels 170-300 mg/m^2, 14 patients assessable
[3] = Totals, all dose levels 170-300 mg/m^2, 14 patients assessable, listed as taxol
[4] = taxol 170 mg/m^2, 2 patients assessable
[5] = taxol 200 mg/m^2, 3 patients assessable
[6] = taxol 250 mg/m^2, 6 patients assessable
[7] = taxol 300 mg/m^2, 3 patients assessable

## CC(=O)O[C@H]1C(=O)[C@@]2(C)[C@H]([C@H](OC(=O)c3ccccc3)[C@]3(O)C[C@H](OC(=O)[C@H](O)[C@@H](NC(=O)c4ccccc4)c4ccccc4)C(C)=C1C3(C)C)[C@]1(OC(C)=O)CO[C@@H]1C[C@@H]2O [Taxol, taxol]
[1]; Five of 14 assessable patients, all dose levels
  Patients with an objective response to therapy: 36%
[1]; [2]
  No. CCR (clinical complete response): 1
  No. MR (minor response): 5
  No. NR (no response; progressive disease on therapy): 4
  No. PR (partial response): 4
[1]; [3]
  No. CCR (clinical complete response): one
  No. MR (minor response): Five
  No. NR (no response; progressive disease on therapy): Four
  No. PR (partial response): four
[1]; five patients
  Reductions in tumor mass in patients with a minor response: 30% to 46%
[1]; phase I, individual PR patients
  Response durations for PR: 30 weeks and ≥ 25 weeks and ≥ 23 weeks and 11 weeks
[1]; phase I, the one CCR patient
  Response duration for CCR: ≥ 30 weeks
[1]; [4]
  No. NR (no response): 1
  No. PR (partial response): 1
[1]; [5]
  No. CCR (clinical complete response): 1
  No. MR (minor response): 1
  No. NR (no response): 1
[1]; [6]
  No. MR (minor response): 3
  No. NR (no response): 2
  No. PR (partial response): 2
[1]; [7]
  No. MR (minor response): 1
  No. PR (partial response): 2
Ovarian cancer; "standard" dose of taxol (about 135 mg/m^2/ 21 days)
  Objective response rate: about 30%
Ovarian cancer; Einzig et al.
  Response rate: 21%
Ovarian cancer; Gynecologic Oncology Group (Thigpen et al.)
  Response rate: 36%
Ovarian cancer; McGuire et al.
  Response rate: 33%
Ovarian cancer; taxol 110 to 200 mg/m^2, cisplatin-sensitive and cisplatin-resistant advanced stage epithelial ovarian cancer
  Patients with objective responses: about 30%
